Assay results: patent US12258327B2, “5-membered heteroaryl-containing aminopyridine compounds as EGFR inhibitors” (YUHAN CORPORATION, priority 2021, dated 2025)
Read-outs that look alike come from different tables or passages of the source.

Legend:
[1] = target: EGFR del19/C797S (Homo sapiens, UniProt P00533, C797S/DEL746-750); assay: Biochemical EGFR kinase assay (Lance Ultra TR-FRET), double mutant del19/C797S
Method in brief: (§1)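 Enzyme reactions lasted 1 hour at room temperature with test compounds between 0.003 and 10 μM, followed by 10 mM EDTA quench.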

[2] = target: EGFR L858R/C797S (Homo sapiens, UniProt P00533, C797S/L858R); assay: Biochemical EGFR kinase assay (Lance Ultra TR-FRET), double mutant L858R/C797S
Method in brief: as §1

[3] = target: EGFR del19/T790M/C797S (Homo sapiens, UniProt P00533, C797S/DEL746-750/T790M); assay: Biochemical EGFR kinase assay (Lance Ultra TR-FRET), triple mutant del19/T790M/C797S
Method in brief: as §1

[4] = target: EGFR L858R/T790M/C797S (Homo sapiens, UniProt P00533, C797S/L858R/T790M); assay: Biochemical EGFR kinase assay (Lance Ultra TR-FRET), triple mutant L858R/T790M/C797S
Method in brief: as §1

[5] = target: EGFR wildtype (WT) (Homo sapiens, UniProt P00533); assay: Biochemical EGFR kinase assay (Lance Ultra TR-FRET), wildtype
Method in brief: as §1

[6] = Km ATP, read-out: IC50 del19/C797S (nM) Km ATP
[7] = Km ATP, read-out: IC50 L858R/C797S (nM) Km ATP
[8] = Km ATP, read-out: IC50 del19/T790M/C797S (nM) Km ATP
[9] = Km ATP, read-out: IC50 L858R/T790M/C797S (nM) Km ATP
[10] = Km ATP, read-out: IC50 WT (nM) Km ATP
[11] = IC50 del19/C797S (nM) 100 μM ATP, 100 μM ATP
[12] = IC50 L858R/C797S (nM) 100 μM ATP, 100 μM ATP
[13] = IC50 del19/T790M/C797S (nM) 100 μM ATP, 100 μM ATP
[14] = IC50 L858R/T790M/C797S (nM) 100 μM ATP, 100 μM ATP
[15] = IC50 WT (nM) 100 μM ATP, 100 μM ATP

Sequence of EGFR wildtype (WT) (P00533 25-1210): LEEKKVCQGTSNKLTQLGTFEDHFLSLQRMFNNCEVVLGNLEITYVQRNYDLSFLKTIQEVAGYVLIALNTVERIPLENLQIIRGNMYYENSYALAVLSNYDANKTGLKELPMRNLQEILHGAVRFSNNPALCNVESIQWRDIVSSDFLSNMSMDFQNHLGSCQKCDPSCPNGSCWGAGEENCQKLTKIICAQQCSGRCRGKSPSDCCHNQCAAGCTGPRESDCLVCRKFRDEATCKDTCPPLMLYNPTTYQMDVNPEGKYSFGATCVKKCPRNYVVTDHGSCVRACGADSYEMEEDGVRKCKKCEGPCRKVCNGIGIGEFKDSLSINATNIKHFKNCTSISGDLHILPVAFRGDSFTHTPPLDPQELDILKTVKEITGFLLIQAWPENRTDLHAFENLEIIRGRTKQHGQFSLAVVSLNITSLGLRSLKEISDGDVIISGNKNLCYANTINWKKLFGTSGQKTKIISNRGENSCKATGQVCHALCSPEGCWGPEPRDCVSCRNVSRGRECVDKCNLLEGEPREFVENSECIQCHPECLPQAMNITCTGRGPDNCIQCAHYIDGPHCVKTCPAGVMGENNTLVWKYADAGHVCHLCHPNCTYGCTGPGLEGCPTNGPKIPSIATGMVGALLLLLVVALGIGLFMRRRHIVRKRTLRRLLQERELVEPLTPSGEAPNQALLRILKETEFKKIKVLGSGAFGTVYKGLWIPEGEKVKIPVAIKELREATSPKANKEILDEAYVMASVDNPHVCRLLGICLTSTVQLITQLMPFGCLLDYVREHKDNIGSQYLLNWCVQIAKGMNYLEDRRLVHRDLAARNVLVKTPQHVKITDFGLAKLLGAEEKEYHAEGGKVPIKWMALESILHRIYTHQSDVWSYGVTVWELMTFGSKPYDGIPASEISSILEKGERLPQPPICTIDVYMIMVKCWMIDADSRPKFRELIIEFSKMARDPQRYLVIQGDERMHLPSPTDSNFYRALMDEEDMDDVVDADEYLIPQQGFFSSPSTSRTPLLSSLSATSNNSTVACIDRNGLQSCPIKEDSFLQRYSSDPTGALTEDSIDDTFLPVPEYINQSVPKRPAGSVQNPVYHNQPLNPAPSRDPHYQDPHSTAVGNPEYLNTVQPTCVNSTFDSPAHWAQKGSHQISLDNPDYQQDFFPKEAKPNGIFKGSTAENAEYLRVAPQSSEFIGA
Sequence of EGFR del19/C797S (P00533 with tags, fused parts or gaps DEL746-750/C797S): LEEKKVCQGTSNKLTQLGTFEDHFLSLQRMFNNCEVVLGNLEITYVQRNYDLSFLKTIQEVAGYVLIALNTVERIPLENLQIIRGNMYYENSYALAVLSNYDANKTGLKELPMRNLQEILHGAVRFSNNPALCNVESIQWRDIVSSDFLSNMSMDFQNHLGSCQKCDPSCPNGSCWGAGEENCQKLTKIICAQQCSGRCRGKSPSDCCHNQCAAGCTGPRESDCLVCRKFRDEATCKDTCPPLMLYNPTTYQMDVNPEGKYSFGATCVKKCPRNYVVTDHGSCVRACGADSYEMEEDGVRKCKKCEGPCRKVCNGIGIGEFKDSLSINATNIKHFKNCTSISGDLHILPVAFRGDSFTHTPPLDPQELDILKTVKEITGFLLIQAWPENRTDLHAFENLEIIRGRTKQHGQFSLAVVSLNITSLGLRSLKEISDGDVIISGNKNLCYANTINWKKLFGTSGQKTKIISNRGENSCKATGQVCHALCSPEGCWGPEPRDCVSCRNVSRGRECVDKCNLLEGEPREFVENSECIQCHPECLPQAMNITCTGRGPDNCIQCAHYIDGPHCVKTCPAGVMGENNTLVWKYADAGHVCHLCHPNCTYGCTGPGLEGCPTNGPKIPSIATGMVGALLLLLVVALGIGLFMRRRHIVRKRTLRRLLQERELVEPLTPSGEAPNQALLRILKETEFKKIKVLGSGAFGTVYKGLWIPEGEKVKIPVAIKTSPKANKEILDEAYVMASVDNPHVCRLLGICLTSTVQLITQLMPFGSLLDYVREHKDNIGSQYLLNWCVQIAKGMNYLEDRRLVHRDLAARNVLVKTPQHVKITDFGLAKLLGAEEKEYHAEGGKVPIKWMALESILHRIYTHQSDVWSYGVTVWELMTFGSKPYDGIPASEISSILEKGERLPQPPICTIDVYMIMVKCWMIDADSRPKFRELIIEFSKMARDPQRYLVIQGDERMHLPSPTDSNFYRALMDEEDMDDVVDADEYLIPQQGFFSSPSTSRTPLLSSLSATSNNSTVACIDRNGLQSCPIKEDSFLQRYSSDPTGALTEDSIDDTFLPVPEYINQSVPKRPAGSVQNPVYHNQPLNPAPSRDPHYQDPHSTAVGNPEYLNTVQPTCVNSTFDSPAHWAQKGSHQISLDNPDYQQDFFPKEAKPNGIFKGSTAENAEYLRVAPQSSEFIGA
Sequence of EGFR L858R/C797S (P00533 25-1210 C797S/L858R): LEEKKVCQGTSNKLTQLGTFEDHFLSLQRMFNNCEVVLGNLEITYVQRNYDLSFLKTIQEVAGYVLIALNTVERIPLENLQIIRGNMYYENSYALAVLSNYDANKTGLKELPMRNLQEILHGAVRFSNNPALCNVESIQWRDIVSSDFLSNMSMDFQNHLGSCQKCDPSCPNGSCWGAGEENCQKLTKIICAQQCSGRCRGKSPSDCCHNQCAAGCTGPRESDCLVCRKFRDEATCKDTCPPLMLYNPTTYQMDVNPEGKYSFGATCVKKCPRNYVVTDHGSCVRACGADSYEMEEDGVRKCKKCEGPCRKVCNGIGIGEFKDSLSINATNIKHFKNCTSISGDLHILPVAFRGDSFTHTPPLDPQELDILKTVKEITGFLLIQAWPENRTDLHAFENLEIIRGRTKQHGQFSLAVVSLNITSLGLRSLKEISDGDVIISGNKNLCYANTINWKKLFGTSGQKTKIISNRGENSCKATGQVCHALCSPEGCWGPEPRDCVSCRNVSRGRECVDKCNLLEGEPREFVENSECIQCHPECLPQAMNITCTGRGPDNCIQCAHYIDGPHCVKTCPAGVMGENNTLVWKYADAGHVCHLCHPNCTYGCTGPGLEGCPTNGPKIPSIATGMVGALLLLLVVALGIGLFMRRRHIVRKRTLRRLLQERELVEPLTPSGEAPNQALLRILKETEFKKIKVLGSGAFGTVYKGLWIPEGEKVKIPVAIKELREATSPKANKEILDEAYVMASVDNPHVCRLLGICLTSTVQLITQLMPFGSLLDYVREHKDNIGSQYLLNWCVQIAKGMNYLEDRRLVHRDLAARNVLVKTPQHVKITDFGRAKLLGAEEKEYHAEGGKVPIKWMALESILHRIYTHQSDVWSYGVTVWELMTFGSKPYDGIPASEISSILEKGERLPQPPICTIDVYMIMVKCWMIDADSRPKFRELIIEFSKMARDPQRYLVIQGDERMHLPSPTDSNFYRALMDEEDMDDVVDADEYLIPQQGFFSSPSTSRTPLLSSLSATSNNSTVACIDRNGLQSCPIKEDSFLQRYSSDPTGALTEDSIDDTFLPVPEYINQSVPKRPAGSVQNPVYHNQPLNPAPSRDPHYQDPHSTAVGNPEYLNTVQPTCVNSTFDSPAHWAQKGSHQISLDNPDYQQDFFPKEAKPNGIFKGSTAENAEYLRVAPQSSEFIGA
Sequence of EGFR del19/T790M/C797S (P00533 with tags, fused parts or gaps DEL746-750/T790M/C797S): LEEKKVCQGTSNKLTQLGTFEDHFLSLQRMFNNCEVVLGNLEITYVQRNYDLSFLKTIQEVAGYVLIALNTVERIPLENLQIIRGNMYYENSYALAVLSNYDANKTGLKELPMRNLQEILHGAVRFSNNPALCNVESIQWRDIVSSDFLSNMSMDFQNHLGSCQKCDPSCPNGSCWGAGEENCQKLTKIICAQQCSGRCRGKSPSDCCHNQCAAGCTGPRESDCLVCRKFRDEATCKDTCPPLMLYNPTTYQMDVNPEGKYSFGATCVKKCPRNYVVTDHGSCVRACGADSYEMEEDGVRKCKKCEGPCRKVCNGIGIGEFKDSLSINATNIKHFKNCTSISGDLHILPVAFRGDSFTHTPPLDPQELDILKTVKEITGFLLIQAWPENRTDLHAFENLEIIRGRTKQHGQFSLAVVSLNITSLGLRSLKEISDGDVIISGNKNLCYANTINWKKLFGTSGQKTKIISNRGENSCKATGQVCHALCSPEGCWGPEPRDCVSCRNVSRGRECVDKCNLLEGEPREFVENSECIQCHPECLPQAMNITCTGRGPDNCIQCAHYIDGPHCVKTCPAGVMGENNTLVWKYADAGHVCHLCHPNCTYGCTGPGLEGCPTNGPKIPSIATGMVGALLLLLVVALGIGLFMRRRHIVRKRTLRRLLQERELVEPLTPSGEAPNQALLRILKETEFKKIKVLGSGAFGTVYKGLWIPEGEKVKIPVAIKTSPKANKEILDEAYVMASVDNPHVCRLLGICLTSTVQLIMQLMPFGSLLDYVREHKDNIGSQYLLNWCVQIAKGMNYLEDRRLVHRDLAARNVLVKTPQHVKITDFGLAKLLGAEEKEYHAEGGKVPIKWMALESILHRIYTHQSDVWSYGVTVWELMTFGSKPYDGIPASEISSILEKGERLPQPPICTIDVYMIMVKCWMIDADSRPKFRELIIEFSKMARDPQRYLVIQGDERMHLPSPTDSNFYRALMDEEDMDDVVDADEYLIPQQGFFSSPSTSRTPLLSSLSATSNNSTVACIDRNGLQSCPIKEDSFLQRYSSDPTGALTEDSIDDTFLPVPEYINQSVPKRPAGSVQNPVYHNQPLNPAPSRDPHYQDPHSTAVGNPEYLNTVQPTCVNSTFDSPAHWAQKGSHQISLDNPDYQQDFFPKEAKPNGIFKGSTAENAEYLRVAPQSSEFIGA

Compound	IC50 [1, 6]	IC50 [2, 7]	IC50 [3, 8]	IC50 [4, 9]	IC50 [5, 10]	IC50 [1, 11]	IC50 [2, 12]	IC50 [3, 13]	IC50 [4, 14]	IC50 [5, 15]	IC50 ([1]; read-out: IC50 del19/C797S (nM) 100 μM ATP, 100 μM ATP)	IC50 ([2]; read-out: IC50 L858R/C797S (nM) 100 μM ATP, 100 μM ATP)	IC50 ([3]; read-out: IC50 del19/T790M/C797S (nM) 100 μM ATP, 100 μM ATP)	IC50 ([4]; read-out: IC50 L858R/T790M/C797S (nM) 100 μM ATP, 100 μM ATP)	IC50 ([5]; read-out: IC50 WT (nM) 100 μM ATP, 100 μM ATP)
C[C@]1(O)CC[C@@H](Nc2cc(Nc3ccnc(-c4cnn(C(F)F)c4)n3)ncc2-c2ccn(C(F)F)n2)CC1 [Example 149, (1s,4s)-4-((5-(1-(Difluoromethyl)-1H-pyrazol-3-yl)-2-((2-(1-(difluoromethyl)-1H-pyrazol-4-yl)pyrimidin-4-yl)amino)pyridin-4-yl)amino)-1-methylcyclohexan-1-ol]	144 nM	47.2 nM	2.7 nM	2.7 nM	1730 nM										
CN(C)C[C@H]1CC[C@@H](Nc2cc(Nc3ccnc(-c4cnn(S(=O)(=O)C5CC5)c4)n3)ncc2-c2cc(C(C)(C)O)n(C)n2)CC1 [Example 302, 2-(3-(6-((2-(1-(Cyclopropylsulfonyl)-1H-pyrazol-4-yl)pyrimidin-4-yl)amino)-4-(((1s,4s)-4-((dimethylamino)methyl)cyclohexyl)amino)pyridin-3-yl)-1-methyl-1H-pyrazol-5-yl)propan-2-ol]	0.2 nM	0.1 nM	0.3 nM	0.1 nM	0.2 nM	0.3 nM	0.2 nM	0.4 nM	0.2 nM	38.9 nM					
CN[C@H]1CC[C@@H](Nc2cc(Nc3ccnc(-c4cnn(S(=O)(=O)C5CC5)c4)n3)ncc2-c2ccn(C(C)C)n2)CC1 [Example 86, N^2-(2-(1-(Cyclopropylsulfonyl)-1H-pyrazol-4-yl)pyrimidin-4-yl)-5-(1-isopropyl-1H-pyrazol-3-yl)-N^4-((1s,4s)-4-(methylamino)cyclohexyl)pyridine-2,4-diamine]											3.2 nM	14.8 nM	0.2 nM	0.3 nM	8510 nM
COc1ccc(-c2nccc(Nc3cc(N[C@H]4CC[C@@](C)(O)CC4)c(-c4ccn(C(F)F)n4)cn3)n2)cn1 [Example 165, (1s,4s)-4-((5-(1-(Difluoromethyl)-1H-pyrazol-3-yl)-2-((2-(6-methoxypyridin-3-yl)pyrimidin-4-yl)amino)pyridin-4-yl)amino)-1-methylcyclohexan-1-ol]	1260 nM	884 nM	3 nM	2.3 nM	6830 nM										
O=S(=O)(C1CC1)n1cc(-c2nccc(Nc3cc(N[C@H]4CC[C@@H](CO)CC4)c(-c4cc5n(n4)CCCC5)cn3)n2)cn1 [Example 60, ((1s,4s)-4-((2-((2-(1-(Cyclopropylsulfonyl)-1H-pyrazol-4-yl)pyrimidin-4-yl)amino)-5-(4,5,6,7-tetrahydropyrazolo[1,5-a]pyridin-2-yl)pyridin-4-yl)amino)cyclohexyl)methanol]	1.1 nM	1.1 nM	1.1 nM	0.5 nM	2.2 nM	2.5 nM	2.4 nM	4.3 nM		326 nM					
CN(CC(F)F)C[C@H]1CC[C@@H](Nc2cc(Nc3ccnc(-c4cnn(S(=O)(=O)C5CC5)c4)n3)ncc2-c2ccn(CC(F)F)n2)CC1 [Example 245, N^2-(2-(1-(Cyclopropylsulfonyl)-1H-pyrazol-4-yl)pyrimidin-4-yl)-N^4-((1s,4s)-4-(((2,2-difluoroethyl)(methyl)amino)methyl)cyclohexyl)-5-(1-(2,2-difluoroethyl)-1H-pyrazol-3-yl)pyridine-2,4-diamine]						27.8 nM	259 nM	13.1 nM	12.8 nM	> 10000 nM					
C[C@]1(O)CC[C@@H](Nc2cc(Nc3ccnc(-c4cnn(S(=O)(=O)C5CC5)c4)n3)ncc2-c2csc(N3CCOCC3)n2)CC1 [Example 120, (1s,4s)-4-((2-((2-(1-(Cyclopropylsulfonyl)-1H-pyrazol-4-yl)pyrimidin-4-yl)amino)-5-(2-morpholinothiazol-4-yl)pyridin-4-yl)amino)-1-methylcyclohexan-1-ol]	1.4 nM	3 nM	0.6 nM	0.3 nM	29.7 nM	2.3 nM	41.7 nM	0.9 nM	0.9 nM	> 10000 nM					

Further lines, with some results ahead:

IC50 [1, 6]	IC50 [2, 7]	IC50 [3, 8]	IC50 [4, 9]	IC50 [5, 10]	IC50 [1, 11]	IC50 [2, 12]	IC50 [3, 13]	IC50 [4, 14]	IC50 [5, 15]	Compound	IC50 ([1]; read-out: IC50 del19/C797S (nM) 100 μM ATP, 100 μM ATP)	IC50 ([2]; read-out: IC50 L858R/C797S (nM) 100 μM ATP, 100 μM ATP)	IC50 ([3]; read-out: IC50 del19/T790M/C797S (nM) 100 μM ATP, 100 μM ATP)	IC50 ([4]; read-out: IC50 L858R/T790M/C797S (nM) 100 μM ATP, 100 μM ATP)	IC50 ([5]; read-out: IC50 WT (nM) 100 μM ATP, 100 μM ATP)
24 nM	12.5 nM	1.2 nM	0.7 nM	687 nM						CC(C)Nc1cc(Nc2ccnc(-c3cnn(S(=O)(=O)C4CC4)c3)n2)ncc1-c1ccn(C(F)F)n1 [Example 144, N^2-(2-(1-(Cyclopropylsulfonyl)-1H-pyrazol-4-yl)pyrimidin-4-yl)-5-(1-(difluoromethyl)-1H-pyrazol-3-yl)-N^4-isopropylpyridine-2,4-diamine]					
0.5 nM	0.3 nM	0.5 nM	0.3 nM	1 nM	0.4 nM	1.4 nM	0.6 nM	0.5 nM	582 nM	CN(C)C[C@H]1CC[C@H](CNc2cc(Nc3ccnc(-c4cnn(S(=O)(=O)C5CC5)c4)n3)ncc2-c2ccn(C(F)F)n2)CC1 [Example 100, N^2-(2-(1-(Cyclopropylsulfonyl)-1H-pyrazol-4-yl)pyrimidin-4-yl)-5-(1-(difluoromethyl)-1H-pyrazol-3-yl)-N^4-(((1r,4r)-4-((dimethylamino)methyl)cyclohexyl)methyl)pyridine-2,4-diamine]					
0.5 nM		0.6 nM	0.3 nM	15.4 nM	2.2 nM	41.3 nM	2.4 nM	2.8 nM	> 10000 nM	O=S(=O)(C1CC1)n1cc(-c2nccc(Nc3cc(NC[C@H]4CC[C@@H](O)CC4)c(-c4ccn(C(F)F)n4)cn3)n2)cn1 [Example 30, (1s,4s)-4-(((2-((2-(1-(Cyclopropylsulfonyl)-1H-pyrazol-4-yl)pyrimidin-4-yl)amino)-5-(1-(difluoromethyl)-1H-pyrazol-3-yl)pyridin-4-yl)amino)methyl)cyclohexan-1-ol]					
					131 nM	9100 nM	3.7 nM	13.3 nM	> 10000 nM	O=S(=O)(C1CC1)n1cc(-c2nccc(Nc3cc(N[C@H]4CC[C@H](CO)OC4)c(-c4ccn(C(F)F)n4)cn3)n2)cn1 [Example 196, ((2R,5S)-5-((2-((2-(1-(Cyclopropylsulfonyl)-1H-pyrazol-4-yl)pyrimidin-4-yl)amino)-5-(1-(difluoromethyl)-1H-pyrazol-3-yl)pyridin-4-yl)amino)tetrahydro-2H-pyran-2-yl)methanol]					
0.3 nM	0.2 nM	0.2 nM	0.1 nM	4.9 nM	0.2 nM	3.6 nM	0.2 nM	0.3 nM	1320 nM	Cn1ccc(-c2cnc(Nc3ccnc(-c4cnn(S(=O)(=O)C5CC5)c4)n3)cc2NC[C@H]2CC[C@@H](O)C2)n1 [Example 118, (1R,3S)-3-(((2-((2-(1-(Cyclopropylsulfonyl)-1H-pyrazol-4-yl)pyrimidin-4-yl)amino)-5-(1-methyl-1H-pyrazol-3-yl)pyridin-4-yl)amino)methyl)cyclopentan-1-ol]					
